Measurements taken from ChEMBL document CHEMBL1201862, “PubChem BioAssay data set” (2004).
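All cell lines were grown in 96-well plates and treated with compound for 48 hours. The concentration for 50% growth inhibition is given as GI50.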 Calls of active or inactive are those of the source. Rule as the data show it: active = GI50 up to about 1.1 µM and inactive = higher.

How the values were obtained:
Assay in all cases: inhibition of tumour cell growth, NCI panel, 48 h
MCF7 = test system: MCF7
KM12 = test system: KM12
OVCAR-3 = test system: OVCAR-3
TK-10 = test system: TK-10
HCT-116 = test system: HCT-116
UACC-62 = test system: UACC-62
DU-145 = test system: DU-145
LOX IMVI = test system: LOX IMVI
RPMI-8226 = test system: RPMI-8226
HT-29 = test system: HT-29
NCI-H226 = test system: NCI-H226
CCRF-CEM = test system: CCRF-CEM
PC-3 = test system: PC-3
NCI-H23 = test system: NCI-H23
MDA-MB-435 = test system: MDA-MB-435
MDA-MB-231 = test system: MDA-MB-231
UACC-257 = test system: UACC-257
RXF 393 = test system: RXF 393
UO-31 = test system: UO-31
SR = test system: SR

Row | SMILES | GI50 (MCF7) | GI50 (KM12) | GI50 (OVCAR-3) | GI50 (TK-10) | GI50 (HCT-116) | GI50 (UACC-62) | GI50 (DU-145) | GI50 (LOX IMVI) | GI50 (RPMI-8226) | GI50 (HT-29) | GI50 (NCI-H226) | GI50 (CCRF-CEM) | GI50 (PC-3) | GI50 (NCI-H23) | GI50 (MDA-MB-435) | GI50 (MDA-MB-231) | GI50 (UACC-257) | GI50 (RXF 393) | GI50 (UO-31) | GI50 (SR)
1 | O/N=N/c1ccc(-c2ccccc2)cn1 | 1.44 µM (inactive) | 33.9 µM (inactive) | 20.2 µM (inactive) | 22.3 µM (inactive) | 9.08 µM (inactive) | 7.64 µM (inactive) | 2.22 µM (inactive) | 6.21 µM (inactive) | < 0.01 µM (active) | 20.6 µM (inactive) | 17.9 µM (inactive) | 2.2 µM (inactive) | 7.4 µM (inactive) | 4 µM (inactive) | 14.7 µM (inactive) | 28.6 µM (inactive) | 43.9 µM (inactive) | 1.38 µM (inactive) | 13.2 µM (inactive) | –
2 | CCN(CC)CC1CCCCN1CC(=O)N1c2ccccc2NC(=O)CC1C (stereo unspecified) | > 100 µM (inactive) | > 100 µM (inactive) | > 100 µM (inactive) | > 100 µM (inactive) | > 100 µM (inactive) | – | > 100 µM (inactive) | > 100 µM (inactive) | > 100 µM (inactive) | > 100 µM (inactive) | > 100 µM (inactive) | > 100 µM (inactive) | > 100 µM (inactive) | > 100 µM (inactive) | > 100 µM (inactive) | > 100 µM (inactive) | > 100 µM (inactive) | > 100 µM (inactive) | > 100 µM (inactive) | –
3 | CCOC(=O)/C=C(/C(=O)OCC)n1cnc2c(=O)[nH]c(NC(C)=O)nc21 | > 100 µM (inactive) | > 100 µM (inactive) | > 100 µM (inactive) | > 100 µM (inactive) | > 100 µM (inactive) | > 100 µM (inactive) | > 100 µM (inactive) | > 100 µM (inactive) | > 100 µM (inactive) | > 100 µM (inactive) | > 100 µM (inactive) | > 100 µM (inactive) | > 100 µM (inactive) | > 100 µM (inactive) | > 100 µM (inactive) | > 100 µM (inactive) | > 100 µM (inactive) | – | > 100 µM (inactive) | > 100 µM (inactive)
4 | O=C(CNc1nccs1)Nn1cnc2ccc(S(=O)(=O)Nc3nccs3)cc2c1=O | > 100 µM (inactive) | > 100 µM (inactive) | > 100 µM (inactive) | > 100 µM (inactive) | > 100 µM (inactive) | > 100 µM (inactive) | > 100 µM (inactive) | > 100 µM (inactive) | > 100 µM (inactive) | > 100 µM (inactive) | > 100 µM (inactive) | > 100 µM (inactive) | > 100 µM (inactive) | > 100 µM (inactive) | > 100 µM (inactive) | > 100 µM (inactive) | > 100 µM (inactive) | – | > 100 µM (inactive) | 35.6 µM (inactive)
5 | CCCCCCCCCCCCCCCC(=O)OCC1CCCN2CCCCC12 (stereo unspecified) | > 100 µM (inactive) | > 100 µM (inactive) | > 100 µM (inactive) | > 100 µM (inactive) | > 100 µM (inactive) | > 100 µM (inactive) | > 100 µM (inactive) | > 100 µM (inactive) | > 100 µM (inactive) | > 100 µM (inactive) | > 100 µM (inactive) | > 100 µM (inactive) | > 100 µM (inactive) | > 100 µM (inactive) | > 100 µM (inactive) | > 100 µM (inactive) | > 100 µM (inactive) | > 100 µM (inactive) | > 100 µM (inactive) | –
6 | COc1cc(/C=C2\CC3C4CC[C@H]5C[C@@H](O)CC[C@]5(C)C4CC[C@]3(C)C2=O)cc(OC)c1OC (stereo partly specified) | 4.25 µM (inactive) | 9.75 µM (inactive) | – | 27.6 µM (inactive) | 7.19 µM (inactive) | 17.6 µM (inactive) | 27.2 µM (inactive) | 12.6 µM (inactive) | 4.17 µM (inactive) | 9.44 µM (inactive) | 13.6 µM (inactive) | 7.36 µM (inactive) | 5.48 µM (inactive) | 20.4 µM (inactive) | 13.5 µM (inactive) | 22.1 µM (inactive) | 21.8 µM (inactive) | 13.9 µM (inactive) | 4.08 µM (inactive) | –
7 | CC1CCOc2ccc(cc2)/C=N\c2ccc(cc2)-c2ccc(cc2)/N=C\c2ccc(cc2)OCC1 | > 100 µM (inactive) | > 100 µM (inactive) | > 100 µM (inactive) | > 100 µM (inactive) | > 100 µM (inactive) | – | > 100 µM (inactive) | > 100 µM (inactive) | > 100 µM (inactive) | > 100 µM (inactive) | > 100 µM (inactive) | > 100 µM (inactive) | > 100 µM (inactive) | > 100 µM (inactive) | > 100 µM (inactive) | > 100 µM (inactive) | > 100 µM (inactive) | – | > 100 µM (inactive) | > 100 µM (inactive)
8 | O=C(O)C(Cc1ccccc1)N1C(=O)c2ccccc2C1=O (stereo unspecified) | > 100 µM (inactive) | > 100 µM (inactive) | > 100 µM (inactive) | > 100 µM (inactive) | > 100 µM (inactive) | > 100 µM (inactive) | > 100 µM (inactive) | > 100 µM (inactive) | > 100 µM (inactive) | > 100 µM (inactive) | > 100 µM (inactive) | 4.01 µM (inactive) | > 100 µM (inactive) | > 100 µM (inactive) | > 100 µM (inactive) | > 100 µM (inactive) | > 100 µM (inactive) | > 100 µM (inactive) | > 100 µM (inactive) | –
9 | O=C(O)c1cccc(/C=C/c2ccccc2)c1 | > 100 µM (inactive) | > 100 µM (inactive) | > 100 µM (inactive) | > 100 µM (inactive) | > 100 µM (inactive) | > 100 µM (inactive) | 3.08 µM (inactive) | > 100 µM (inactive) | > 100 µM (inactive) | > 100 µM (inactive) | > 100 µM (inactive) | > 100 µM (inactive) | > 100 µM (inactive) | > 100 µM (inactive) | > 100 µM (inactive) | > 100 µM (inactive) | > 100 µM (inactive) | > 100 µM (inactive) | > 100 µM (inactive) | –
10 | COc1ccccc1-c1nc(-c2ccccc2O)n[nH]1 | > 100 µM (inactive) | > 100 µM (inactive) | > 100 µM (inactive) | > 100 µM (inactive) | > 100 µM (inactive) | > 100 µM (inactive) | > 100 µM (inactive) | 71.1 µM (inactive) | > 100 µM (inactive) | > 100 µM (inactive) | > 100 µM (inactive) | > 100 µM (inactive) | > 100 µM (inactive) | > 100 µM (inactive) | > 100 µM (inactive) | > 100 µM (inactive) | > 100 µM (inactive) | > 100 µM (inactive) | > 100 µM (inactive) | –
11 | CC(=O)Nc1sc([N+](=O)[O-])cc1S(=O)(=O)c1ccc(Cl)cc1 | 2.86 µM (inactive) | 2.99 µM (inactive) | 2.32 µM (inactive) | 5.28 µM (inactive) | 2.99 µM (inactive) | 1.67 µM (inactive) | 3.3 µM (inactive) | 3.94 µM (inactive) | 3.14 µM (inactive) | 3.13 µM (inactive) | 3.96 µM (inactive) | 8.2 µM (inactive) | 2.02 µM (inactive) | 2.39 µM (inactive) | 3.3 µM (inactive) | 4.23 µM (inactive) | 2.64 µM (inactive) | 2.64 µM (inactive) | 3.09 µM (inactive) | –
